Experiment [1] in a line: viability loss in A549 lung cells – cell-based, ATP luminescence, dry powder, set 16, cytotoxicity control, dose response (AID 1053140). The note with it: A549 viability, CellTiter-Glo ATP luminescence, 72 h. (ATP-based viability assays read luminescence as a measure of living cells.)
Experiment [2] has as its system A549 viability, CellTiter-Glo ATP luminescence, 72 h. The experiment is described as above.

The structures appear in SMILES notation. Calls of active or inactive are those of the source.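 How the source made its calls: active means cell killing, with AC50 under 10 µM and within twice the top valid dose; inactive means effect in the opposite direction, and the rest.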

From PubChem BioAssay AID1053140 (Broad Institute, 2014) come the findings set out here.

Consider `CO[C@H]1CN(C)C(=O)c2cc(NC(=O)NC(C)C)ccc2OC[C@H](C)N(Cc2ccc(F)cc2)C[C@@H]1C`, for which, in experiment [1] (at 50 µM (top of the series)), the activity change, negative = cytotoxic was -3.88% (inactive).
Regarding `CCC(CC)Nc1c(Nc2ccc3c(c2)C(=O)N(C)C[C@H](OC)[C@@H](C)CN(Cc2ccc(-c4ccccn4)cc2)[C@@H](C)CO3)c(=O)c1=O`, the concentration at half-maximal activity (AC50) (in general, the midpoint of the concentration-response curve, whichever way the signal moves) in experiment [2] was 43.7 µM.
Take `CO[C@H]1CN(C)C(=O)c2cc(NC(=O)NC(C)C)ccc2OC[C@H](C)N(Cc2cncnc2)C[C@@H]1C`: the activity change, negative = cytotoxic in experiment [1] (at 50 µM (top of the series)) is -6.71% (inactive).
Turning to `CO[C@H]1CN(C)C(=O)c2cc(NC(=O)NC(C)C)ccc2OC[C@H](C)N(C(=O)Nc2ccc(-c3ccccn3)cc2)C[C@@H]1C`, the AC50 in experiment [2] was > 100 µM (inactive).
As to `CCCC(=O)Nc1ccc2c(c1)OC[C@H](C)N(Cc1ccc(-c3ccccn3)cc1)C[C@H](C)[C@@H](OC)CN(C)C2=O`, the activity change, negative = cytotoxic in experiment [1] (at 26 µM (top of the series)) was 6.08% (inactive).
As for `CCCC(=O)Nc1ccc2c(c1)OC[C@H](C)N(Cc1ccccc1)C[C@H](C)[C@@H](OC)CN(C)C2=O`, the activity change, negative = cytotoxic in experiment [1] (at 26 µM (top of the series)) is -0.093% (inactive).
On to `CO[C@H]1CN(C)C(=O)c2cc(NC(=O)NC(C)C)ccc2OC[C@H](C)N(Cc2ccncc2)C[C@@H]1C`, for which the activity change, negative = cytotoxic in experiment [1] (at 50 µM (top of the series)) was 4.36% (inactive).
With `CO[C@H]1CN(C)C(=O)c2cc(NC(=O)NC(C)C)ccc2OC[C@H](C)NC[C@@H]1C`, the activity change, negative = cytotoxic in experiment [1] (at 50 µM (top of the series)) is -2.18% (inactive).
Turning to `CO[C@H]1CN(C)C(=O)c2cc(N)ccc2OC[C@H](C)N(Cc2ccc(-c3ccccn3)cc2)C[C@@H]1C`, the AC50 in experiment [2] was > 100 µM (inactive).
For the molecule `CCCNC(=O)Nc1ccc2c(c1)OC[C@H](C)N(Cc1ccccc1)C[C@H](C)[C@@H](OC)CN(C)C2=O`, the activity change, negative = cytotoxic in experiment [1] (at 26 µM (top of the series)) is 0.334% (inactive).
With `CO[C@H]1CN(C)C(=O)c2cc(NC(=O)NC(C)C)ccc2OC[C@H](C)N(Cc2ccc(-c3cncnc3)cc2)C[C@@H]1C`, the AC50 in experiment [2] is > 100 µM (inactive).
For `CCCNC(=O)Nc1ccc2c(c1)OC[C@H](C)N(Cc1ccc(-c3ccccn3)cc1)C[C@H](C)[C@@H](OC)CN(C)C2=O`, the activity change, negative = cytotoxic in experiment [1] (at 26 µM (top of the series)) is -9.23% (inactive).
Still for that read-out and setting: to `CO[C@H]1CN(C)C(=O)c2ccc(NC(=O)NC(C)C)cc2OC[C@H](C)N(Cc2ccc(-c3ccccn3)cc2)C[C@@H]1C` belongs 3.22% (inactive).
As for `CO[C@H]1CN(C)C(=O)c2cc(NC(=O)NC(C)C)ccc2OC[C@H](C)N(C(=O)c2ccc(-c3ccccn3)cc2)C[C@@H]1C`, the activity change, negative = cytotoxic in experiment [1] (at 50 µM (top of the series)) is -11.3% (inactive).
As to `CO[C@H]1CN(C)C(=O)c2cc(NC(=O)NC(C)C)ccc2OC[C@H](C)N(Cc2ccccn2)C[C@@H]1C`, the AC50 in experiment [2] was > 100 µM (inactive).
Still for that read-out and setting: the figure for `CO[C@H]1CN(C)C(=O)c2cc(NC(=O)NC(C)C)ccc2OC[C@H](C)N(Cc2ccc(-c3cccnc3)cc2)C[C@@H]1C` is 45.7 µM; for `CO[C@H]1CN(C)C(=O)c2cc(Nc3ncccn3)ccc2OC[C@H](C)N(Cc2ccc(-c3ccccn3)cc2)C[C@@H]1C` it is > 100 µM (inactive); for `CO[C@H]1CN(C)C(=O)c2cc(Nc3c(NC4CCCCC4)c(=O)c3=O)ccc2OC[C@H](C)N(Cc2ccc(-c3ccccn3)cc2)C[C@@H]1C` it is 36.8 µM.
Take `CO[C@H]1CN(C)C(=O)c2cc(NC(=O)OC(C)C)ccc2OC[C@H](C)N(Cc2ccc(-c3ccccn3)cc2)C[C@@H]1C`: in experiment [2], the AC50 was > 100 µM (inactive).
On to `CO[C@H]1CN(C)C(=O)c2cc(Nc3c(NC4CCCC4)c(=O)c3=O)ccc2OC[C@H](C)N(Cc2ccc(-c3ccccn3)cc2)C[C@@H]1C`, for which the AC50 in experiment [2] is > 100 µM (inactive).
With `CO[C@H]1CN(C)C(=O)c2cc(NC(=O)NC(C)C)ccc2OC[C@H](C)N(C(=O)c2ccccc2)C[C@@H]1C`, the activity change, negative = cytotoxic in experiment [1] (at 50 µM (top of the series)) is -11.4% (inactive).
As for `CO[C@H]1CN(C)C(=O)c2cc(Nc3c(NC4CC4)c(=O)c3=O)ccc2OC[C@H](C)N(Cc2ccc(-c3ccccn3)cc2)C[C@@H]1C`, the AC50 in experiment [2] is 25.2 µM.
Take `CO[C@H]1CN(C)C(=O)c2cc(NC(=O)C(C)C)ccc2OC[C@H](C)N(Cc2ccc(-c3ccccn3)cc2)C[C@@H]1C`: in experiment [2], the AC50 is > 100 µM (inactive).
As to `CO[C@H]1CN(C)C(=O)c2cc(Nc3c(NC(C)C)c(=O)c3=O)ccc2OC[C@H](C)N(Cc2ccc(-c3ccccn3)cc2)C[C@@H]1C`, the AC50 in experiment [2] was 45.3 µM.
On to `CO[C@H]1CN(C)C(=O)c2ccc(NC(=O)NC(C)C)cc2OC[C@H](C)N(Cc2ccccc2)C[C@@H]1C`, for which the activity change, negative = cytotoxic in experiment [1] (at 26 µM (top of the series)) was 4.59% (inactive).
`CO[C@H]1CN(C)C(=O)c2cc(NC(=O)NC(C)C)ccc2OC[C@H](C)N(Cc2cccnc2)C[C@@H]1C`: the activity change, negative = cytotoxic in experiment [1] (at 50 µM (top of the series)) is 6.13% (inactive).
